Substitutions are numbered along the chain they refer to. Each block holds one compound with its values, some of them ahead of it.
Legend:
human CYP51 = biological target: T1, human CYP51 (Homo sapiens, UniProt Q16850); assay: CYP51 inhibitor binding assay
T1 sequence (Q16850 1-509): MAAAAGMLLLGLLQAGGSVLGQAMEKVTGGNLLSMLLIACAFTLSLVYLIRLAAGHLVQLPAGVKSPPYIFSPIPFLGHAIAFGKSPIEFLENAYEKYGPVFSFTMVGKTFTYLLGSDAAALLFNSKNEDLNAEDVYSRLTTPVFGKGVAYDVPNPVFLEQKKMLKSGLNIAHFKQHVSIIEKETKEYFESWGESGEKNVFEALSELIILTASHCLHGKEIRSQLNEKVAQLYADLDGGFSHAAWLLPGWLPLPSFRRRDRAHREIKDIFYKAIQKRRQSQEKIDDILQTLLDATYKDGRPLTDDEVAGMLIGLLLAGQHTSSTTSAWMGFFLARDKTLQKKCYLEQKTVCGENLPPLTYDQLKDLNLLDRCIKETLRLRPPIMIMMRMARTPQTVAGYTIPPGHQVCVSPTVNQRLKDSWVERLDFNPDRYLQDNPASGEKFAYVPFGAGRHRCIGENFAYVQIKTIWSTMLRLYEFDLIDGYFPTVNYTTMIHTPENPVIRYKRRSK

[1] = biological target: T2, T318I mutant of human CYP51 (Homo sapiens, UniProt Q16850, T324I); assay: CYP51 inhibitor binding assay, T318I mutant
T2 sequence (Q16850 1-509 T324I): T1 sequence (Q16850 1-509) with T324I

human CYP51 (WT) = biological target: T3, human CYP51 (WT) (Homo sapiens, UniProt Q16850); assay: CYP51 activity assay, inhibition of lanosterol 14α-demethylation; assay type: biochemical; details: WT enzyme, 1 h reaction
T3 sequence (Q16850 1-509): T1 sequence (Q16850 1-509)

[2] = biological target: T2, T318I mutant of human CYP51; assay: CYP51 activity assay, inhibition of the T318I mutant; assay type: biochemical
[3] = quoted in legend of Figure 1, reference not given; cited from earlier work

Soret band maximum (human CYP51; inhibitor-bound human CYP51, red shift from 417 nm): 425 nm
SMILES: O=C(N[C@@H](Cn1ccnc1)c1ccc(-c2ccc(F)cc2)cc1F)c1ccc(-c2nnc(-c3ccccc3)o2)cc1 [VFV]

Kd (human CYP51): 4.7 µM
Kd [1]: 0.4 µM
increase of binding affinity for the mutant ([1]; T318I vs WT enzyme): approximately 12 fold
IC50 [2]: > 25 µM
SMILES: O=C(N[C@@H](Cn1ccnc1)c1ccc(Cl)cc1Cl)c1ccc(-c2nnc(-c3ccccc3)o2)cc1 [VNI, (R)-N-(1-(2,4-dichlorophenyl)-2-(1 H-imidazol-1-yl)ethyl)-4-(5-phenyl-1,3,4-oxadiazol-2-yl)benzamide]
inhibition of human CYP51 activity (in words) (human CYP51 (WT)): does not inhibit the WT human CYP51 at all

SMILES: C[C@@H](NCCCc1cccc(C(F)(F)F)c1)c1cccc2ccccc12 [cinacalcet]
log P [3]: 6.5

SMILES: CCC(C)n1ncn(-c2ccc(N3CCN(c4ccc(OCC5COC(Cn6cncn6)(c6ccc(Cl)cc6Cl)O5)cc4)CC3)cc2)c1=O (stereo not drawn) [itraconazole]
log P [3]: 6.8

SMILES: CC[C@@H]([C@H](C)O)n1ncn(-c2ccc(N3CCN(c4ccc(OC[C@@H]5CO[C@@](Cn6cncn6)(c6ccc(F)cc6F)C5)cc4)CC3)cc2)c1=O [posaconazole]
log P [3]: 5.5

— article PMC6881533 (Journal of medicinal chemistry, 2019)
